According to patent publication US11613528B2, “Small molecule inhibitors of shared epitope-calreticulin interactions and methods of use” (The Regents of the University of Michigan, priority 2017, dated 2023):
“Also recorded” adds a separate entry of the source.

Experiments:
RAW 264.7 cells = experiment: in vitro osteoclast (OC) differentiation assay; assay type: cell-based, mouse
Protocol: OC differentiation was determined at day 5.
RAW 264.7 cells were cultured in OC-differentiating conditions in the presence or absence of the racemic mix (left) of HL840, the S-enantiomer (middle), or the R-enantiomer (right) at different concentrations, and their inhibitory effect on OC differentiation was determined at day 5.
To differentiate osteoclast (OC) from RAW 264.7 mouse macrophages, cells were cultured in the same way (2×10^4 per well), except that RANKL was added at a concentration of 20 ng/ml, for 5-6 days in the presence or absence of various compounds at different concentrations. To quantify the number of OCs, cultures were fixed and stained for tartrate-resistant acid phosphatase (TRAP) activity using an acid phosphatase kit (Kamiya Biomedical Company, Seattle, Wash.) according to the manufacturer's instructions. TRAP-positive multinucleated OCs (>3 nuclei) were counted using a tissue culture inverted microscope. All experiments were performed in triplicates and repeated 4 (C & D, n=12) or 3 (E-L; n=9) times. Percent inhibition of OC formation relative to cultures with PBS were calculated and presented as dose-response curves. IC50 values were calculated using the GraphPad-Prism software.

SE-CRT interactions = experiment: inhibition of SE-CRT interactions; assay type: binding
[1] = permeability through Caco-2 cell layers; assay type: in vitro ADME; details: human
[2] = oral availability in vivo (oral gavage, serum levels); parameters: species or system DBA/1 mice
mice with CIA = experiment: collagen induced arthritis (CIA) animal model; assay type: in vivo, DBA/1 mice; details: oral, doses as low as 1.25 μg/Kg body weight twice weekly
Protocol: Arthritis incidence was recorded.
2-tailed Student t-test; **, p<0.005.
Specifically, experiments were conducted with an animal model of collagen induced arthritis (CIA).

SKG mice = experiment: pre-clinical model of RA in SKG mice; assay type: in vivo

SMILES | IC50 (RAW 264.7 cells; Mus musculus, RAW264.7, 120 h, RAW 264.7 cells in OC-differentiating conditions, OC differentiation at day 5, read-out: anti-osteoclast (OC) activity IC50) [nM] | inhibition of SE-CRT interactions (SE-CRT interactions) | Papp A→B [1] [×10⁻⁶ cm/s] | oral availability in vivo [2] | arthritis severity (mice with CIA) | bone destruction (radiologic bone damage) (mice with CIA) | disease development (arthritis incidence) (mice with CIA) | therapeutic effects (SKG mice) | enantiomer-specific activity (e.g., inhibition of SE-CRT interaction and signaling) of racemic HL840 (RAW 264.7 cells; inhibitory effect on OC differentiation at day 5, FIG. 3)
Cn1cc(/C=C/C(=O)N2CCC[C@@H](Cn3cc(CN)nn3)C2)cn1 (racemic) [HL840, (R,E)-(1-((1-(3-(1-methyl-1H-pyrazol-4-yl)acryloyl)piperidin-3-yl)methyl)-1H-1,2,3-triazol-4-yl)methanaminium] | 0.0199 | potent, competitive inhibition | 5.6 | moderately orally available; also recorded: orally available in vivo | decreased arthritis severity | prevented bone destruction | strongly inhibited disease development | Significant therapeutic effects | –
Cn1cc(/C=C/C(=O)N2CCC[C@@H](Cn3cc(CN)nn3)C2)cn1 (single isomer, unassigned) [(R)-enantiomer] | – | – | – | – | – | – | – | – | responsible for all activity
